Data: article PMC10633902, “Investigating the antimicrobial activity, cytotoxicity, and action mechanism of acylated and amidated derivatives of AurH1 antifungal peptide” (BMC Microbiology, 2023)
Where two headings read alike, the source gives them in different places. No end group written: not given here.

Tests used:
[1] = system: Candida glabrata (ATCC 90,030); design: method as in our previous study [6]; conditions: C. glabrata; ref our previous study [6]; cited from earlier work
[2] = system: Candida krusei (ATCC 28,870); design: method as in our previous study [6]; conditions: C. krusei; ref our previous study [6]; cited from earlier work
C. albicans [3] = experiment: Effect of salts and human serum on antimicrobial activity (MIC); format: cell-based, Candida albicans
Procedure: To evaluate the effect of salts and human serum on the antimicrobial activity of the AurH1-NH2 and AurH1 peptides, their antimicrobial activity (MICs values) against C. albicans under different conditions containing salt and human serum was determined. Therefore, mid-logarithmic phase yeasts diluted to 5 × 10^5 CFU/ml in SDB were added to related media containing different concentrations of human serum (10%, 20%, and 30%) and salts (150 mM NaCl and 1mM MgCl2), and incubated at 37 °C for 24 h.

[4] = system: Aspergillus flavus (ATCC 24,109); design: method as in our previous study [6]; conditions: A. flavus; ref our previous study [6]; cited from earlier work
human red blood cells = format: cell-based; conditions: 1 h
Procedure: A hemolytic assay was performed to investigate the effects of peptides on human red blood cells. First, 5 ml of fresh human blood was taken from a volunteer. After that, 20% (v/v) suspension of human erythrocytes was prepared and diluted in PBS (1:20). Next, 100 µL of this blood suspension was added in triplicate to 100 µL of a 2-fold serial dilution series of the peptide in a 96‐well plate. 1% Triton-X 100 was used as a positive control to lyse 100% of RBCs, and sterile 0.9% NaCl solution was used as a negative control. Then the plates were incubated at 37 °C for 1 h and centrifuged at 3500 rpm for 10 min. Next, 100 µL of the supernatant was transferred to a new 96-well plate to measure the absorbance at 414 nm using a microplate reader (STAT FAX 2100, BioTek, Winooski, USA). Finally, the percentage of hemolysis was calculated as follows: […]

[5] = system: Escherichia coli (ATCC 25,922); design: method as in our previous study [6]; conditions: E. coli; ref our previous study [6]; cited from earlier work
[6] = system: Candida albicans (ATCC 10,231); design: method as in our previous study [6]; conditions: C. albicans; ref our previous study [6]; cited from earlier work
C. albicans [7] = experiment: Killing kinetic assay (time of killing); format: cell-based, Candida albicans; conditions: 1X MIC concentration
[8] = system: Aspergillus niger (ATCC 9142); design: method as in our previous study [6]; conditions: A. niger; ref our previous study [6]; cited from earlier work
C. albicans [9] = experiment: Ergosterol binding assay (MIC in presence and absence of ergosterol); format: cell-based, Candida albicans
Procedure: An ergosterol binding assay was performed to measure the binding potency of peptides to fungal membrane sterols. For this purpose, the ergosterol was dissolved in DMSO and Tween-20, it was heated to increase the solubility of the formed emulsion and diluted in an SDB medium at a concentration of […] and incubated at 37 °C for 1 h. After that, MIC of the AurH1, Ac-AurH1, and AurH1-NH2 peptides was measured by the micro-dilution method in the presence and absence of ergosterol in different concentrations ([…]) against C. albicans.

[10] = system: Staphylococcus aureus (ATCC 25,923); design: method as in our previous study [6]; conditions: S. aureus; ref our previous study [6]; cited from earlier work
C. albicans [11] = system: C. albicans; design: method as in PMID 31264322; conditions: cited from earlier work

In the case of WFKIIKK [AurH1, WFKIIKK], the “MBC (MFC)” value [1] is listed as 500 µg/mL, the MIC [1] is listed as 125 µg/mL and the “MBC (MFC)” value [2] is listed as 250 µg/mL. For the same substance, the MIC [2] was 31.25 µg/mL, the MIC (C. albicans [3]; SDB) was 15.6 µg/mL and the MIC (C. albicans [3]; SDB + 10% serum (human)) was 15.6 µg/mL. For the same substance, the MIC (C. albicans [3]; SDB + 20% serum (human)) was 62.5 µg/mL, the MIC (C. albicans [3]; SDB + 30% serum (human)) was 125 µg/mL and the MIC (C. albicans [3]; SDB + MgCl2 (1 mM)) was 15.6 µg/mL. For the same substance, the MIC (C. albicans [3]; SDB + NaCl (150 mM)) was 15.6 µg/mL, the MIC [4] was > 1000 µg/mL and the “HC50 (concentration that lyses 50% of red blood cells)” value (human red blood cells) was 13,484 µg/ml. The MIC [5] was > 1000 µg/mL, the “MBC (MFC)” value [6] was 125 µg/mL and the MIC [6] was 15.625 µg/mL. For the same substance, the “time to kill all C. albicans (maximum fungicidal effect)” value (C. albicans [7]) was 24 h, the “MBC (MFC)” value [8] was 500 µg/mL and the MIC [8] was 125 µg/mL. The MIC (C. albicans [9]; after treatment with Ergosterol (Erg)) was 15.6 µg/mL, the MIC (C. albicans [9]; before treatment with Ergosterol (substance alone)) was 15.6 µg/mL and the MIC [10] was > 1000 µg/mL. The “combinatorial effect (in words)” value (C. albicans [11]; in combination with amphotericin B) was “synergistic effects” and the “combinatorial effect (in words)” value (C. albicans [11]; in combination with fluconazole) was “synergistic effects”.
